Values after ≈ are worked out from the molar mass of the structure shown.
Key:
Format in all cases: functional, cell-based
K562 = test: Cytotoxicity against human K562 cells by MTT assay
HL-60 = test: Cytotoxicity against human HL60 cells by MTT assay
A-431 = test: Cytotoxicity against human A431 cells by MTT assay
HepG2 = test: Cytotoxicity against human HepG2 cells by MTT assay
SK-OV-3 = test: Cytotoxicity against human SKOV3 cells by MTT assay

SMILES	IC50 (K562)	IC50 (HL-60)	IC50 (A-431)	IC50 (HepG2)	IC50 (SK-OV-3)
NC(=O)c1c(Cl)c(Cl)c2[nH]c3ccccc3c(=O)c2c1Cl	7.7 µg/mL (≈ 22.5 µM)	5.7 µg/mL (≈ 16.7 µM)	1.2 µg/mL (≈ 3.51 µM)	1.9 µg/mL (≈ 5.56 µM)	28 µg/mL (≈ 82 µM)
NC(=O)c1c(F)c(Cl)c2[nH]c3ccccc3c(=O)c2c1F	0.2 µg/mL (≈ 0.648 µM)	0.2 µg/mL (≈ 0.648 µM)	0.08 µg/mL (≈ 0.259 µM)	0.2 µg/mL (≈ 0.648 µM)	4 µg/mL (≈ 13 µM)
NC(=O)c1c(F)c(F)c2[nH]c3ccccc3c(=O)c2c1F	4.5 µg/mL (≈ 15.4 µM)	2 µg/mL (≈ 6.84 µM)	0.05 µg/mL (≈ 0.171 µM)	6.5 µg/mL (≈ 22.2 µM)	4.5 µg/mL (≈ 15.4 µM)
NC(=O)c1c(F)c(Cl)c2[nH]c3ccc(Cl)cc3c(=O)c2c1F	3 µg/mL (≈ 8.74 µM)	16.6 µg/mL (≈ 48.4 µM)	0.3 µg/mL (≈ 0.874 µM)	3.4 µg/mL (≈ 9.91 µM)	5.3 µg/mL (≈ 15.4 µM)
NC(=O)c1c(F)c(F)c2[nH]c3ccc(Cl)cc3c(=O)c2c1F	2.7 µg/mL (≈ 8.27 µM)	1.3 µg/mL (≈ 3.98 µM)	0.3 µg/mL (≈ 0.918 µM)	4.3 µg/mL (≈ 13.2 µM)	3.9 µg/mL (≈ 11.9 µM)
